Laboratory results reported in patent publication US7470690B2, “4-(2-Fluorophenyl)-6-methyl-2-(1-piperazinyl)thieno[2,3-D)pyrimidine in the treatment of functional bowel disorder” (Dynogen Pharmaceuticals, Inc., priority 2002, dated 2008).

Tested on: male Sprague-Dawley rats
Experiment: Inhibition of the reflex depressor response to colorectal distension in anaesthetised rats
Format: in vivo, rat
Conditions: for Fall in arterial blood pressure (mean absolute decrease in mean arterial pressure, standard error of mean in brackets) evoked by distension of the balloon: following MCI-225 3 mg/kg i.v.
Description: The data on which this invention is based will now be described. In a study using intact animals, the ability of a drug to inhibit the reflex depressor response to colorectal distension can be assessed. In this model, an inhibition of the reflex indicates modulation of visceral nociceptive neurotransmission and, therefore, the use of the drug in functional bowel disease (e.g. IBS); see Kozlowski et al, 2000, Gut 46, 474-480. Allodynia and visceral pain are important components of functional bowel disease.
Experiments were performed on male Sprague-Dawley rats (250-300 g). Anaesthesia was induced with isoflurane (2.5% in oxygen) and maintained with alpha chlorolose (80 mg/kg i.v.). The left carotid artery was cannulated for the measurement of blood pressure and heart rate and the left jugular vein cannulated for drug administration. A tracheal cannula was implanted for artificial respiration if required. A 10 mm long latex balloon was inserted intrarectally so that the tip of the balloon was 20 mm from the anal verge (Kozlowski et al, supra). The balloon was connected via a double lumen cannula to a pressure transducer and also to a saline-filled syringe for inflation/deflation of the balloon. Throughout the experiment, body temperature was kept constant at 36-38 C using a homeothermic blanket.
Once stable baseline parameters were obtained (approximately after 20 minutes), the balloon was rapidly inflated with increasing volumes of saline (0.5-2.5 ml) for 30 seconds at 5 minute intervals, and the resultant change in blood pressure recorded. Three distinct response curves were constructed, with a 10 minute stabilisation period between each curve. In one group of animals, 10 minutes prior to the commencement of the final distension response curve, a single bolus of MCI-225 (3 mg/kg) was administered intravenously; in a second group of animals, a single bolus dose of vehicle was administered. The effect of MCI-225 and vehicle was determined by analysing the changes in colorectal distension that evoked depressor response.

Cc1cc2c(-c3ccccc3F)nc(N3CCNCC3)nc2s1.Cl.O [MCI-225, 4-(2-Fluorophenyl)-6-methyl-2-(1-piperazinyl)thieno[2,3-D]pyrimidine monohydrate hydrochloride]
Effect on distension-induced falls in blood pressure (in words) (3 mg/kg i.v., colorectal balloon distension): inhibited the distension-induced falls in blood pressure | Fall in arterial blood pressure (mean absolute decrease in mean arterial pressure, standard error of mean in brackets) evoked by distension of the balloon (0.5 ml balloon volume, n=6): 2.2 (1.65) mmHg | Fall in arterial blood pressure (mean absolute decrease in mean arterial pressure, standard error of mean in brackets) evoked by distension of the balloon (1.0 ml balloon volume, n=6): 6.3 (2.6) mmHg | Fall in arterial blood pressure (mean absolute decrease in mean arterial pressure, standard error of mean in brackets) evoked by distension of the balloon (1.5 ml balloon volume, n=6): 10.6 (3.9) mmHg | Fall in arterial blood pressure (mean absolute decrease in mean arterial pressure, standard error of mean in brackets) evoked by distension of the balloon (2.0 ml balloon volume, n=6, p less than 0.01 vs before drug (paired t test)): 15.3 (5.4) mmHg | Fall in arterial blood pressure (mean absolute decrease in mean arterial pressure, standard error of mean in brackets) evoked by distension of the balloon (2.5 ml balloon volume, n=5, p less than 0.05 vs before drug (paired t test)): 24.6 (7.3) mmHg
